For series [1], the target named is T1, human ether-a-go-go related gene (hERG) channel (Homo sapiens, UniProt Q12809).
T1 construct: expressed in transfected cells; host or cells: CHO cells
The experiment in a line: hERG test (whole cell patch clamp). In kind it is cell-based. Particulars: CHO cells expressing hERG; concentration not given. An excerpt:
For the purpose of assessing risk of an electrocardiogram QT interval prolongation of the compound of the present invention, effects of the compound of the present invention on delayed rectifier K^+ current (IKr), which plays an important role in the ventricular repolarization process, was studied using CHO cells expressing human ether-a-go-go related gene (hERG) channel.
After a cell was retained at a membrane potential of −80 mV by whole cell patch clamp method using an automated patch clamp system (QPatch; Sophion Bioscience A/S) and gave a leak potential of −50 mV, IKr induced by depolarization pulse stimulation at +20 mV for 2 seconds, and further, repolarization pulse stimulation at −50 mV for 2 seconds, was recorded. A vehicle, which was the 0.1% dimethyle sulfoxide solution in extracellular solution (NaCl: 145 mmol/L, KCl: 4 mmol/L, CaCl2: 2 mmol/L, MgCl2: 1 mmol/L, glucose:10 mmol/L, HEPES (4-(2-hydroxyethyl)-1-piperazineethanesulfonic acid): 10 mmol/L, pH7.4), or the compound of the present invention had been dissolved at an objective concentration in the extracellular solution was applied to the cell at room temperature for 7 minutes or more. From the recording IKr, an absolute value of the tail peak current was measured based on the current value at the resting membrane potential using analysis software (QPatch assay software; Sophion Bioscience A/S). Further, the % inhibition of tail peak current for the compound of the present invention relative to the tail peak current after application of the vehicle was calculated to assess influence of the compound of the present invention on IKr. The dilution concentration and dilution solvent were changed as necessary.
In general terms: hERG is a cardiac potassium channel; its block is linked to QT prolongation.

Series [2] is described as follows: BA test (oral absorption). The conditions noted are these: plasma; mice or rats; oral vs intravenous administration. In kind it is in vivo. The procedure:
Materials and methods for experiments to evaluate oral absorption (1) Experimental animals: mice or rats were used. (2) Rearing condition: mice or rats were allowed free access to solid feed and sterilized tap water. (3) Setting of dosage and grouping: Oral administration and intravenous administration were performed with the predetermined dosage. Grouping was set as below. (Dosage was changed per compound)
Oral administration 2 to 60 μmol/kg or 1 to 30 mg/kg (n=2 to 3)
Intravenous administration 1 to 30 μmol/kg or 0.5 to 10 mg/kg (n=2 to 3)
(4) Preparation of administration solutions: Oral administration was performed as suspension or solution. Intravenous administration was performed after solubilization. (5) Routes of administration: Oral administration was performed mandatory into the stomach by oral sonde. Intravenous administration was performed from caudal vein by syringes with needle. (6) Evaluation items: Blood was collected serially and concentration of a compound of the present invention in plasma was measured by LC/MS/MS. (7) Statistical analysis: About transition of concentration of a compound of the present invention in plasma, the area under the plasma concentration versus time curve (AUC) was calculated by non-linear least-squares method program, and bioavailability (BA) of a compound of the present invention was calculated from dosages and AUCs of the oral administration group and the intravenous administration group. The dilution concentration or the dilution solvent were changed as necessary.

The target in series [3] is T2, HDAC2 Human recombinant C-terminal FLAG-tag (Homo sapiens, UniProt Q92769).
T2 construct: FLAG (C); purchased BPS Bioscience 50052
T2 sequence (Q92769 whole entry): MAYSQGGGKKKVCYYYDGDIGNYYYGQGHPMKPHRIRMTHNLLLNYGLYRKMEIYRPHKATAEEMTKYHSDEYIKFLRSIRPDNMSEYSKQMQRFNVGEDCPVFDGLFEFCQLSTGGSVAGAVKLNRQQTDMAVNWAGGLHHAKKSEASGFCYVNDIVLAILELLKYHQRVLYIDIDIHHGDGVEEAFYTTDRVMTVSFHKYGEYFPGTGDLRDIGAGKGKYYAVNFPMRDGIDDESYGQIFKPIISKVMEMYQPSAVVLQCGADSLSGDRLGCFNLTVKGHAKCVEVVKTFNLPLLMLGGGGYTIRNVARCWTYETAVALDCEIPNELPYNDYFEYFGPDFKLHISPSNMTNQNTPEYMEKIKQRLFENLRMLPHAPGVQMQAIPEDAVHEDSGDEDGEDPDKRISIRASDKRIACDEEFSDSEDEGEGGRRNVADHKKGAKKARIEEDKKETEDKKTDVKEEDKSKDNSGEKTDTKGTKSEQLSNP
The experiment in a line: Measurement of HDAC2 enzyme inhibitory activity (HTRF). In kind it is biochemical. Particulars: recombinant HDAC2, H3K9ac peptide, 3 hours room temperature; read-out: HDAC2 IC50. Put shortly:
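Compounds were tested at 8 points in 3-fold dilutions from 99 μM final (n=2) against FLAG-tagged HDAC2 with biotinylated H3K9ac (1-21) peptide (0.6 μM as added). The reaction ran 3 h at room temperature in Tris pH 8.0 buffer, then was stopped with SAHA. Deacetylated product was detected by HTRF (Eu-anti-H3K9me0 antibody, streptavidin-XL665) as the 665/615-620 nm ratio.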
For orientation: TR-FRET usually uses a lanthanide donor and a delayed reading to cut background.

Series [4] is described as follows: Platelet toxicity test using human blood progenitor cells (WST). In kind it is cell-based. The conditions noted are these: human bone marrow CD34+ progenitor cells, maximum concentration 25 μM. The procedure:
Test Example 2: Platelet Toxicity Test Using Human Blood Progenitor Cells
Human bone marrow CD34+ progenitor cells (Lonza, 2M-101B) stored at −80° C. were thawed, spun down at 150 g for 10 minutes at 20° C., and a medium (StemSpan Expansion Supplement, STEM CELL TECHNOLOGIES, ST-02696) to which cytokines (StemSpan SFEM II, STEM CELL TECHNOLOGIES, ST-09655) was added was added to adjust to 2×10^4/well, the mixture was seeded in 12well non-coat dish (Corning, 3513), was incubated for 10 days at 37° C., 5% CO2. After 10 days, the cells were collected and spun down at 150 g for 10 minutes at 20° C., and a medium (StemSpan Expansion Supplement) containing cytokines (StemSpan SFEM II) was added so that the number of cells became 2×10^5 cells/ml. 50 μl of the cell suspension was seeded to each well of a 96-well plate (Corning, 3596) and allowed to stand overnight in an incubator at 37° C., 5% CO2. The next day, 50 μl of the test compound was treated to each well and allowed to stand for 48 hours in the incubator at 37° C., 5% CO2 (n=2). At this time, the test compound dissolved in 100% DMSO was serially diluted with DMSO at a 3-fold ratio, and then a medium containing cytokine was added to adjust the final concentration to 25, 8.33, 2.78, 0.93, 0.31, 0.1 μM. After that, 10 μl of WST (Cell count reagent SF, Nacalai Tesque Inc., 07553-44) was added to each well, and the mixture was allowed to stand in the incubator for 4 hours at 37° C., 5% CO2, and then the multi-label reader 2030 ARVO X4 (PerkinElmer) was used to measure the absorbance. At this time, the absorbance at 450 nm and the absorbance at 620 nm were obtained, and the difference between 450 nm and 620 nm was used as the measured value. The measured values were analyzed by Excel and TIBCO Spotfire, and IC50 values were calculated. At this time, for control (−), the well without cells was set as n=6 for one row, and the average value was calculated, and for control (+), the well in which DMSO was added to the cells so as to have the same concentration as the compound treatment group was set as n=6 for one row, and the average value was calculated and corrected for each plate. For the test compound, the average value of n=2 was used.

T1 sequence (Q12809 whole entry): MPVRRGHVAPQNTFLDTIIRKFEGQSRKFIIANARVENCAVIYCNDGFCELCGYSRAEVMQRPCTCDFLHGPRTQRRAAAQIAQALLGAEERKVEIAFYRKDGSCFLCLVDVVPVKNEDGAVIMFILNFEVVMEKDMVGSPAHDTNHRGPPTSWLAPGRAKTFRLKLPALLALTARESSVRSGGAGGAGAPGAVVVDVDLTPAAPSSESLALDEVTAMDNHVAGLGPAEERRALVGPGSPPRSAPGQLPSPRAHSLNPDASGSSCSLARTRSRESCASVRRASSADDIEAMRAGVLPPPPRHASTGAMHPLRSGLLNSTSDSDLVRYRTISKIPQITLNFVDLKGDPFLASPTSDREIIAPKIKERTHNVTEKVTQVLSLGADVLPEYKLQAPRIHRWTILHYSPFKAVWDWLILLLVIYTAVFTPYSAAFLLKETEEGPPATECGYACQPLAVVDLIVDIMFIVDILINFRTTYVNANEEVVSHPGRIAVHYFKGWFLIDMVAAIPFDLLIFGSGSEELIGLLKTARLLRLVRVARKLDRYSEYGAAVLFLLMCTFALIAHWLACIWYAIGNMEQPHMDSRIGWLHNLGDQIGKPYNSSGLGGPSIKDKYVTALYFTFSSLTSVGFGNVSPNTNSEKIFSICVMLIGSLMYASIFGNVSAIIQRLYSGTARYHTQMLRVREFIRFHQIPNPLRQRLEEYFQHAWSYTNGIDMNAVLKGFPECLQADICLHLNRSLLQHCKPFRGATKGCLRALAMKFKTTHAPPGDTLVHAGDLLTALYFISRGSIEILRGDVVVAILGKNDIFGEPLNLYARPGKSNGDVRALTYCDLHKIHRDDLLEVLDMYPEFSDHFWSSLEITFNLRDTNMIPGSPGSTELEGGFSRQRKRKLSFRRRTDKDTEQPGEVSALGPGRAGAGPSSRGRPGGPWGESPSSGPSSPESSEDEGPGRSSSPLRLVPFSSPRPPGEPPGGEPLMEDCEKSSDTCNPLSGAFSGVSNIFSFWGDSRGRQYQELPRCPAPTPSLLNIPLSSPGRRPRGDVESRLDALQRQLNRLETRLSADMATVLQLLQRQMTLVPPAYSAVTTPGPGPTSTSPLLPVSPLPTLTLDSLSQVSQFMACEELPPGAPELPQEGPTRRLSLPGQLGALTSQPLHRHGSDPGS

Consider `Cn1cc(-c2ccc(C(=O)Nc3cc(-c4cccs4)ccc3N)nc2)cn1` [Compound I-003], for which, in series [1], the “% inhibition of tail peak current (IKr)” value came out at 17.1%. The bioavailability (as a rule, the share of a dose that reaches the circulation, judged against a reference dose that is usually intravenous) in series [2] stood at 33.8%. Moreover, the IC50 (as a rule, the point on the concentration scale where inhibition reaches its midpoint) in series [3] stood at 310 nM. For the same compound, the IC50 at 48 h in series [4] is greater than 25000 nM.
On the same counts, the results for `Cn1cc(-c2cnc(C(=O)Nc3cc(-c4cccs4)ccc3N)cn2)cn1` [Compound I-006] are 14.3%, 35.6%, 54 nM and greater than 25000 nM.
